Laboratory results reported in patent US20020098520A1, “Cell tests and diagnostic index for alzheimer's disease” (priority 1993, published 2002).
Read-outs that look alike come from different tables or passages of the source.

What was measured:
[1] = system: 113 pS K^+ channel; test: Patch-clamp, cell-free patches: channel sensitivity to blockers; assay type: cell-based, human; settings: outside-out patches, n=4 YC, n=3 AC
Description: (§1) Patch-clamp experiments were performed at room temperature (21-23° C.), following standard procedures set forth in Sakmann, B. and Neher, E. (1983) Single Channels Recordings (Plenum New York) and Kukuljan, M., et al. (1991) J. Membrane Biol. 119:187. Before recordings, […] culture medium was replaced with the following solution: 150 mM NaCl, 5 mM KCl, 2 mM CaCl2, 1 MM MgCl2, 10 mM HEPES […] pH=7.4. Pipettes were made from Blue Tip capillary tubes (I.D. 1.1-1.2 mm) using a BB-CH Mecanex puller, and then filled with a high potassium solution of 140 mM KCl, 2 mM CaCl2, 1 mM MgCl2, 10 mM HEPES (NaOH), pH=7.4. Pipette resistances were approximately 6 MΩ. Records were obtained using an Axopatch-1C amplifier (dc-10 kHz), stored on tape (Toshiba PCM-video recorder), and later transferred to a personal computer using an Axolab interface. Only recordings lasting for at least 3 minutes were considered for final analysis. The pClamp suite of programs was used for single-channel data acquisition and analysis. Amplifier, interface and software were obtained from Axon Instruments (Foster City, Calif.).

[2] = system: 166 pS K^+ channel; test: as above; assay type: cell-based, human; settings: outside-out patches
Description: as §1

[3] = system: control fibroblasts; settings: after 100 MM TEA addition, control cells n=4
Description: as §1

[4] = system: cultured fibroblasts (AD, controls, Es)
Description: Culture medium was removed and cells were washed at least three times with BSS (in mM: NaCl 140, KCl 5, CaCl2 2.5, MgCl2 1.5, HEPES 10, Glucose 5, pH=7.4). The fluorescent probe was loaded by incubating the cells in 2 μM (in BSS) fura 2-AM (Molecular Probes) for 60 min at room temperature. After loading, cells were washed thoroughly with BSS or BSS-0 Ca^2+ (in mM: NaCl 140, KCl 5, CaCl2 0.1, MgCl2 1.5, EGTA 1, HEPES 10, Glucose 5, pH=7.4). After washes, 1 ml of fresh solution was added for intracellular Ca^2+ baseline measurements. […] This solution was adjusted in order to introduce no osmolality changes. […] Bradykinin (Calbiochem) in BSS and BSS-0 Ca^2+ (1 ml) was also used at concentrations of 100 pM, 1 nm and 10 nM. Fluorescent images at 340 and 380 nm were acquired at a rate of 2.6/sec. for 200 sec, with a Hamamatsu Argus 50 system (Hamamatsu Photonics). The objective lens was a 10×Nikon fluor. Only the ¼ evenly illuminated area of the whole image was acquired. Individual ratio values were obtained off-line for all cells within the area of interest. Three to five dishes of a given cell line were used for each experimental condition. The number of cells measured per cell line was at least 50. In most cases, experiments for each cell line were repeated on at least one separate occasion (minimum one week interval).

[5] = system: human skin fibroblasts (AD, AC, YC); settings: for TEA Response Blind / TEA Response Non Blind: one cell line per table line
Description: Thirteen AD, ten AC, and six YC were used for the calcium-imaging experiments. Culture medium was replaced and washed three times with basal salt solution (“BSS”) consisting of 140 mM NaCl, 5 mM KCl2.5 mM CaCl2, 1.5 mm MgCl2, 5 mM glucose, 10 mM HEPES (NaOH), pH 7.4. Nominally Ca^2+ free BSS was prepared as BSS without adding CaCl2.
Fura-2 (acetyloxymethyl ester) (Fura-2AM) was purchased from Molecular Probes (Eugene, Oreg.) and stored as a 1 mM solution in dimethylsulfoxide. Fura-2AM was added to a final concentration of 2 µM and cells were incubated at room temperature (21°-23° C.) for 60 minutes. After incubation, cells were washed at least three times with BSS at room temperature before [Ca^2+]i determinations. Fluorescence was measured with a Hamamatsu ARGUS 50 imaging system (Hamamatsu Photonics, Japan) under the control of a personal computer (Hamamatsu imaging software package). Excitation at 340 nm and 380 nm was attenuated with neutral density filters. Fluorescent images were obtained with a 400 nm dichroic mirror and a 510 nm long-pass barrier filter. The objective lens was an X10 Nikon UV fluor. Fluorescence was measured within a uniformly illuminated fraction (¼) of the whole image.
The averaged Ca^2+ responses within 15×15 pixels in cytosolic and in nuclear cellular compartments obtained were quantified with ratios between emitted 510 nm fluorescence activated at 340 nm and fluorescence emitted at 510 nm with activation at 380 nm. These ratios were transformed to absolute values of [Ca^2+], after calibration based on the following equation:
R=Rmax+(Rmin−Rmax)/(1+([Ca^2+]i/Kd)^b).
Here R denotes fluorescence intensity illuminated by 340 nm divided by fluorescence intensity illuminated by 380 nm (F340/F380), and Rmax and Rmin are the values of R when the concentration of calcium is at a maximum and a minimum (i.e., the maximum and minimum value measurable by the machine under the measuring conditions), respectively. Kd is a dissociation constant of fura-2 for Ca^2+ and was determined as 240 nM. The value of b, which determined the degree of asymmetry, was 1.2. […] A response of 100% [Ca^+2]i elevation in at least 10% of cells in a line was, therefore, considered to be a conservative criterion for a positive response.

[6] = system: neuropathological non-AD fibroblasts
[7] = 100 mM TEA, Age-Matched Control Fibroblasts
[8] = 100 mM TEA, Young Control Fibroblasts
[9] = Alzheimer's Patients, total 738 cells
[10] = Young Controls, total 532 cells

CC[N+](CC)(CC)CC [TEA, tetraethylammonium]
sensitivity of the 113 pS channel to TEA [1]: sensitive | sensitivity of the 166 pS channel to TEA [2]: only the 113 PS channel was sensitive | depolarization of control cells [3]: 13-20 mV | % of responding cells in Es cell lines ([4]; 100 mM TEA, 3 Es cell lines): lower % of responding cells | number of control cell lines with significant Ca^2+ elevations meeting CR ([4]; 100 mM TEA, 11 control cell lines): 11 | number of AD cell lines that did not meet CR ([4]; 100 mM TEA, 14 AD cell lines): 10 | % of responding cells in AD cell lines compared to controls ([4]; TEA-induced responses): significantly reduced | [Ca^2+]i elevation in response to TEA ([5]; 1 mM TEA, YC fibroblasts): elevated | [Ca^2+]i elevation in response to TEA ([5]; 10 mM TEA, AC fibroblasts): elevated | [Ca^2+]i elevation in response to TEA ([5]; 10 mM TEA, YC fibroblasts): elevated | [Ca^2+]i elevation in response to TEA ([5]; 100 mM TEA, AC fibroblasts): elevated | return of [Ca^2+]i to basal levels ([5]; 100 mM TEA, YC and AC fibroblasts): 100 s | [Ca^2+]i elevation in response to TEA ([5]; 100 mM TEA, YC fibroblasts): elevated | TEA Response Blind [5, 7]: + | TEA Response Non Blind [5, 7]: + | TEA Response Blind ([5]; 100 mM TEA, Alzheimer's Disease Fibroblasts): − | TEA Response Non Blind ([5]; 100 mM TEA, Alzheimer's Disease Fibroblasts, criterion 100% elevation in at least 10% of cells): − | TEA Response Blind [5, 8]: + | TEA Response Non Blind [5, 8]: + | Number of Cell Lines, Increase in [Ca^+2]i with 100 mM TEA ([5]; Aged Controls, total 10 cell lines): 10 | Number of Cells, Increase in [Ca^+2]i with 100 mM TEA ([5]; Aged Controls, total 417 cells): 119 | Percent of cells, Increase in [Ca^+2]i with 100 mM TEA ([5]; Aged Controls, total 417 cells): 29% | Number of Cell Lines, Increase in [Ca^+2]i with 100 mM TEA ([5]; Alzheimer's Patients, total 13 cell lines): 0 | Number of Cells, Increase in [Ca^+2]i with 100 mM TEA [5, 9]: 4 | Percent of cells, Increase in [Ca^+2]i with 100 mM TEA [5, 9]: 0.5% | cells with a minimum of 100% [Ca^+2]i elevation ([5]; TEA application, every control cell line except one young control): at least 18 % of cells | cells with 100% [Ca^+2]i elevation ([5]; TEA application, the only AD cell line with any response): 4 % of cells | Number of Cell Lines, Increase in [Ca^+2]i with 100 mM TEA ([5]; Young Controls, total 6 cell lines): 5 | Number of Cells, Increase in [Ca^+2]i with 100 mM TEA [5, 10]: 145 | Percent of cells, Increase in [Ca^+2]i with 100 mM TEA [5, 10]: 27% | TEA ([6]; Parkinson's donor cell line): + | TEA ([6]; Schizophrenia donors, one cell line per table line): + | TEA ([6]; Wernicke-Kors. donors, one cell line per table line): +
